# Results published in patent US7371766B2, “Curcumin analogs with anti-tumor and anti-angiogenic properties” (Emory University, priority 1999, dated 2008).
# Where two headings read alike, the source gives them in different places.
# What was measured:
# [1] = system: Sixty human tumor cell lines; conditions: NCI Anti-Tumor Screen, several cell types
# CCRF-CEM = experiment: cells; conditions: Homo sapiens, 48 h; for GI50: read-out: Median Growth Inhibitory Concentration (GI50)
# HL-60 (TB) = experiment: cells; conditions: Homo sapiens, HL-60, 48 h; for GI50: read-out: Median Growth Inhibitory Concentration (GI50); for CC50: read-out: Median Lethal Concentration (LC50)
# SR = experiment: cells; conditions: Homo sapiens, 48 h; for GI50: read-out: Median Growth Inhibitory Concentration (GI50); for CC50: read-out: Median Lethal Concentration (LC50)
# A549 = experiment: cells; conditions: Homo sapiens, A549, 48 h; for GI50: read-out: Median Growth Inhibitory Concentration (GI50); for CC50: read-out: Median Lethal Concentration (LC50)
# EKVX = experiment: cells; conditions: Homo sapiens, 48 h; for GI50: read-out: Median Growth Inhibitory Concentration (GI50); for CC50: read-out: Median Lethal Concentration (LC50)
# NCI-H226 = experiment: cells; conditions: Homo sapiens, NCI-H226, 48 h; for GI50: read-out: Median Growth Inhibitory Concentration (GI50); for CC50: read-out: Median Lethal Concentration (LC50)
# NCI-H23 = experiment: cells; conditions: Homo sapiens, NCI-H23, 48 h; for GI50: read-out: Median Growth Inhibitory Concentration (GI50); for CC50: read-out: Median Lethal Concentration (LC50)
# NCI-H522 = experiment: cells; conditions: Homo sapiens, NCI-H522, 48 h; for GI50: read-out: Median Growth Inhibitory Concentration (GI50); for CC50: read-out: Median Lethal Concentration (LC50)
# COLO 205 = experiment: cells; conditions: Homo sapiens, COLO 205, 48 h; for GI50: read-out: Median Growth Inhibitory Concentration (GI50); for CC50: read-out: Median Lethal Concentration (LC50)
# HCT-116 = experiment: cells; conditions: Homo sapiens, HCT-116, 48 h; for GI50: read-out: Median Growth Inhibitory Concentration (GI50); for CC50: read-out: Median Lethal Concentration (LC50)
# KM12 = experiment: cells; conditions: Homo sapiens, KM12, 48 h; for GI50: read-out: Median Growth Inhibitory Concentration (GI50); for CC50: read-out: Median Lethal Concentration (LC50)
# SW-620 = experiment: cells; conditions: Homo sapiens, SW-620, 48 h; for GI50: read-out: Median Growth Inhibitory Concentration (GI50); for CC50: read-out: Median Lethal Concentration (LC50)
# SF-539 = experiment: cells; conditions: Homo sapiens, SF-539, 48 h; for GI50: read-out: Median Growth Inhibitory Concentration (GI50); for CC50: read-out: Median Lethal Concentration (LC50)
# SNB-19 = experiment: cells; conditions: Homo sapiens, SNB-19, 48 h; for GI50: read-out: Median Growth Inhibitory Concentration (GI50); for CC50: read-out: Median Lethal Concentration (LC50)
# U251 = experiment: cells; conditions: Homo sapiens, U-251, 48 h; for GI50: read-out: Median Growth Inhibitory Concentration (GI50); for CC50: read-out: Median Lethal Concentration (LC50)
# SK-MEL-2 = experiment: cells; conditions: Homo sapiens, SK-MEL-2, 48 h; for GI50: read-out: Median Growth Inhibitory Concentration (GI50); for CC50: read-out: Median Lethal Concentration (LC50)
# SK-MEL-5 = experiment: cells; conditions: Homo sapiens, SK-MEL-5, 48 h; for GI50: read-out: Median Growth Inhibitory Concentration (GI50)
# UACC-257 = experiment: cells; conditions: Homo sapiens, UACC-257, 48 h; for GI50: read-out: Median Growth Inhibitory Concentration (GI50); for CC50: read-out: Median Lethal Concentration (LC50)
# SK-OV-3 = experiment: cells; conditions: Homo sapiens, SK-OV-3, 48 h; for GI50: read-out: Median Growth Inhibitory Concentration (GI50); for CC50: read-out: Median Lethal Concentration (LC50)
# 786-0 = experiment: cells; conditions: Homo sapiens, 786-0, 48 h; for GI50: read-out: Median Growth Inhibitory Concentration (GI50); for CC50: read-out: Median Lethal Concentration (LC50)
# TK-10 = experiment: cells; conditions: Homo sapiens, TK-10, 48 h; for GI50: read-out: Median Growth Inhibitory Concentration (GI50); for CC50: read-out: Median Lethal Concentration (LC50)
# MCF-7 = experiment: cells; conditions: Homo sapiens, MCF7, 48 h; for GI50: read-out: Median Growth Inhibitory Concentration (GI50); for CC50: read-out: Median Lethal Concentration (LC50)
# MDA-MB-231 = experiment: cells; conditions: Homo sapiens, MDA-MB-231, 48 h; for GI50: read-out: Median Growth Inhibitory Concentration (GI50); for CC50: read-out: Median Lethal Concentration (LC50)
# HS 578T = experiment: cells; conditions: Homo sapiens, 48 h; for GI50: read-out: Median Growth Inhibitory Concentration (GI50); for CC50: read-out: Median Lethal Concentration (LC50)
# MDA-MB-435 = experiment: cells; conditions: Homo sapiens, MDA-MB-435, 48 h; for GI50: read-out: Median Growth Inhibitory Concentration (GI50); for CC50: read-out: Median Lethal Concentration (LC50)
# T-47D = experiment: cells; conditions: Homo sapiens, T47D, 48 h; for GI50: read-out: Median Growth Inhibitory Concentration (GI50); for CC50: read-out: Median Lethal Concentration (LC50)
# [2] = system: Sixty human tumor cell lines; experiment: cells; conditions: 48 h; for GI50: read-out: Median Growth Inhibitory Concentration (GI50), Mean; for CC50: read-out: Median Lethal Concentration (LC50), Mean
# RPMI-7951 human melanoma = experiment: Neutral Red Assay, cell viability, RPMI-7951; conditions: Homo sapiens
# Procedure: RPMI-795 1, MDA-MB-231 and MDA-MB-435 cell lines were cultured in MEM-alpha medium (GIBCO-BRL, Long Island, N.Y.) containing 10% fetal bovine serum (RPMI-7951, MDA-MB-231) or 5% FBS (MDA-MB-435) at 37° C. and under 5% CO2/95% air. […] The cells were cultured in 48 well plates in all of the experiments described.
# Neutral Red Assay was utilized to determine the effect of the compounds of the present invention on cell viability. Neutral Red was purchased from GIBCO-BRL (Long Island, N.Y.). Cells were plated at a concentration of 20,000 cells/well and cultured overnight. Compounds or vehicle (DMSO 0.1%) were then added and the plates were incubated for 72 hours. Supernatant from each well was either aspirated or collected and media containing Neutral Red (GIBCO-BRL, Long Island, N.Y.) at a concentration of 15 μl/ml was then added to each well. The plates were then incubated at 37° C. for 30 minutes. Next, the cells were washed with twice with PBS and alcoholic-HCl (0.5N—HCl/35% ethanol) was added to each well. The plates were then placed on a plate shaker until all residues were solubilized (pink color). The solubilized mixtures were then transferred to a 96 well plate and the absorbances were read on a micro-test plate reader at a wavelength of 570 nm.
# Cell viability was determined by Neutral Red Assay.
# [3] = read-out: Median Lethal Concentration (LC50)
# [4] = RPMI-7951, 72 h, read-out: Neutral Red Uptake, %
# [5] = RPMI-7951, read-out: Cell Viability
smiles,measurement,setting,value
"O=C(C=Cc1ccc(F)cc1F)C=Cc1ccc(F)cc1F [EF9, 1,5-Bis(2,4-difluorophenyl)penta-1,4-dien-3-one]","LC50 compared with CISPLATIN, in words",[1],lower LC50 than the chemotherapeutic agent CISPLATIN for several cell types
same,GI50,CCRF-CEM,3.1 µM
same,CC50,CCRF-CEM; [3],> 100 µM
same,GI50,HL-60 (TB),4.2 µM
same,CC50,HL-60 (TB),> 100 µM
same,GI50,SR,1.2 µM
same,CC50,SR,77.9 µM
same,GI50,A549,8.9 µM
same,CC50,A549,71 µM
same,GI50,EKVX,11.8 µM
same,CC50,EKVX,49.1 µM
same,GI50,NCI-H226,24.3 µM
same,CC50,NCI-H226,> 100 µM
same,GI50,NCI-H23,12.3 µM
same,CC50,NCI-H23,62.3 µM
same,GI50,NCI-H522,13.4 µM
same,CC50,NCI-H522,57.1 µM
same,GI50,COLO 205,7.6 µM
same,CC50,COLO 205,52.8 µM
same,GI50,HCT-116,1.9 µM
same,CC50,HCT-116,7.7 µM
same,GI50,KM12,2.3 µM
same,CC50,KM12,14.6 µM
same,GI50,SW-620,3.2 µM
same,CC50,SW-620,62.6 µM
same,GI50,SF-539,2.6 µM
same,CC50,SF-539,23.1 µM
same,GI50,SNB-19,14.7 µM
same,CC50,SNB-19,58.8 µM
same,GI50,U251,2.1 µM
same,CC50,U251,12.9 µM
same,GI50,SK-MEL-2,14.5 µM
same,CC50,SK-MEL-2,58.9 µM
same,GI50,SK-MEL-5,12.1 µM
same,CC50,SK-MEL-5; [3],53.1 µM
same,GI50,UACC-257,16 µM
same,CC50,UACC-257,62.1 µM
same,GI50,SK-OV-3,15.4 µM
same,CC50,SK-OV-3,53.7 µM
same,GI50,786-0,3.5 µM
same,CC50,786-0,49.6 µM
same,GI50,TK-10,17.9 µM
same,CC50,TK-10,56.5 µM
same,GI50,MCF-7,3 µM
same,CC50,MCF-7,42.2 µM
same,GI50,MDA-MB-231,14.1 µM
same,CC50,MDA-MB-231,57.7 µM
same,GI50,HS 578T,9.9 µM
same,CC50,HS 578T,> 100 µM
same,GI50,MDA-MB-435,3.2 µM
same,CC50,MDA-MB-435,35.9 µM
same,GI50,T-47D,4.4 µM
same,CC50,T-47D,56.1 µM
same,GI50,[2],7.2 µM
same,CC50,[2],52.5 µM
same,viability at 5 µM,RPMI-7951 human melanoma; [4],88%
same,viability at 20 µM,RPMI-7951 human melanoma; [4],11%
same,viability at 5 µM,RPMI-7951 human melanoma; [5],92%
same,viability at 20 µM,RPMI-7951 human melanoma; [5],70%
"CC(=O)O.O=C1C(=Cc2ccccc2F)CNCC1=Cc1ccccc1F [EF24, 3,5-Bis-(2-fluorobenzylidene)-piperidin-4-one-acetate]","GI50 compared with CISPLATIN, in words",[1],lower GI50 than the chemotherapeutic agent CISPLATIN for several cell types
same,"LC50 compared with CISPLATIN, in words",[1],lower LC50 than the chemotherapeutic agent CISPLATIN for several cell types
same,GI50,CCRF-CEM,0.2 µM
same,GI50,HL-60 (TB),0.4 µM
same,CC50,HL-60 (TB),> 100 µM
same,GI50,SR,0.1 µM
same,CC50,SR,68.2 µM
same,GI50,A549,1.9 µM
same,CC50,A549,89.4 µM
same,GI50,EKVX,0.9 µM
same,CC50,EKVX,9.4 µM
same,GI50,NCI-H226,3.6 µM
same,CC50,NCI-H226,48.3 µM
same,GI50,NCI-H23,0.9 µM
same,CC50,NCI-H23,5.3 µM
same,GI50,NCI-H522,0.9 µM
same,CC50,NCI-H522,22.9 µM
same,GI50,COLO 205,0.8 µM
same,CC50,COLO 205,8 µM
same,GI50,HCT-116,0.2 µM
same,CC50,HCT-116,1.8 µM
same,GI50,KM12,0.2 µM
same,CC50,KM12,3.4 µM
same,GI50,SW-620,0.2 µM
same,CC50,SW-620,4.4 µM
same,GI50,SF-539,0.3 µM
same,CC50,SF-539,7.6 µM
same,GI50,SNB-19,0.7 µM
same,CC50,SNB-19,19.3 µM
same,GI50,U251,0.2 µM
same,CC50,U251,0.8 µM
same,GI50,SK-MEL-2,2.6 µM
same,CC50,SK-MEL-2,19.5 µM
same,GI50,SK-MEL-5,1.3 µM
same,GI50,UACC-257,1.8 µM
same,CC50,UACC-257,13.5 µM
same,GI50,SK-OV-3,1.7 µM
same,CC50,SK-OV-3,12.8 µM
same,GI50,786-0,0.2 µM
same,CC50,786-0,1.6 µM
same,GI50,TK-10,3.1 µM
same,CC50,TK-10,27.8 µM
same,GI50,MCF-7,0.2 µM
same,CC50,MCF-7,5 µM
same,GI50,MDA-MB-231,1.3 µM
same,CC50,MDA-MB-231,9.1 µM
same,GI50,HS 578T,1 µM
same,CC50,HS 578T,81.4 µM
same,GI50,MDA-MB-435,0.6 µM
same,CC50,MDA-MB-435,7.4 µM
same,GI50,T-47D,1.3 µM
same,CC50,T-47D,51.9 µM
same,GI50,[2],0.7 µM
same,CC50,[2],13.2 µM
COc1cc(/C=C/C(=O)CC(=O)/C=C/c2ccc(O)c(OC)c2)ccc1O [Curcumin],GI50,CCRF-CEM,3.2 µM
same,GI50,HL-60 (TB),7.9 µM
same,CC50,HL-60 (TB),< 100 µM
same,GI50,SR,3.2 µM
same,CC50,SR,79.4 µM
same,GI50,A549,12.6 µM
same,CC50,A549,79.4 µM
same,GI50,EKVX,15.8 µM
same,CC50,EKVX,79.4 µM
same,GI50,NCI-H226,20 µM
same,CC50,NCI-H226,< 100 µM
same,GI50,NCI-H23,5 µM
same,CC50,NCI-H23,< 100 µM
same,GI50,NCI-H522,5 µM
same,CC50,NCI-H522,79.4 µM
same,GI50,COLO 205,12.6 µM
same,CC50,COLO 205,63.1 µM
same,GI50,HCT-116,3.2 µM
same,CC50,HCT-116,50.1 µM
same,GI50,KM12,5 µM
same,CC50,KM12,63.1 µM
same,GI50,SW-620,4 µM
same,CC50,SW-620,79.4 µM
same,GI50,SF-539,3.2 µM
same,CC50,SF-539,31.6 µM
same,GI50,SNB-19,7.9 µM
same,CC50,SNB-19,63.1 µM
same,GI50,U251,5 µM
same,CC50,U251,50.1 µM
same,GI50,SK-MEL-2,15.8 µM
same,CC50,SK-MEL-2,79.4 µM
same,GI50,SK-MEL-5,7.9 µM
same,GI50,UACC-257,12.6 µM
same,CC50,UACC-257,50.1 µM
same,GI50,SK-OV-3,7.9 µM
same,CC50,SK-OV-3,50.1 µM
same,GI50,786-0,3.2 µM
same,CC50,786-0,39.8 µM
same,GI50,TK-10,15.8 µM
same,CC50,TK-10,63.1 µM
same,GI50,MCF-7,3.2 µM
same,CC50,MCF-7,< 100 µM
same,GI50,MDA-MB-231,20 µM
same,CC50,MDA-MB-231,< 100 µM
same,GI50,HS 578T,10 µM
same,CC50,HS 578T,< 100 µM
same,GI50,MDA-MB-435,3.2 µM
same,CC50,MDA-MB-435,39.8 µM
same,GI50,T-47D,7.9 µM
same,CC50,T-47D,< 100 µM
same,GI50,[2],6.7 µM
same,CC50,[2],66 µM
same,viability at 5 µM,RPMI-7951 human melanoma; [4],100%
same,viability at 20 µM,RPMI-7951 human melanoma; [4],14%
same,viability at 5 µM,RPMI-7951 human melanoma; [5],105%
same,viability at 20 µM,RPMI-7951 human melanoma; [5],47%
